Laboratory results reported in patent publication US6635615B1, “Stable salts of S-adenosyl-l-methionine” (priority 1999, dated 2003).
Blank lines part the entries; values can stand above or below the compound they belong to.

Tests used:
[1] = Stability on storage at room temperature, HPLC analysis of SAM-e concentration; assay type: physicochemical
From the text: (§1) SAM-e-1, 4-butane-disulphonate and chitosan salt of SAM-e 1, 4-butane-disulphonate were stored at room temperature, in a closed, clear glass vial at constant humidity. HPLC analysis done according to Bottligleri, T. (1990) Isocratic high performance liquid chromatographic analysis of S-adenosylmethionine and S-adenosylhomocysteine in animal tissues: the effect of exposure to nitrous oxide. Biomed Chromatogr, 4(6):239-41.
Stability study-of polycation (chitosan) salt of SAM-e tosylate
as §1, with “SAM-e tosylate” for “SAM-e-1, 4-butane-disulphonate”, “tosylate” for “1, 4-butane-disulphonate”

[2] = oral; alcoholic liver cirrhosis; compared with a placebo treated group; cited from earlier work
[3] = preliminary study; cited from earlier work
[4] = oral; patients with and without liver disease; cited from earlier work
[5] = oral; patients with intrahepatic cholestasis; cited from earlier work
[6] = oral; short term trial; cited from earlier work

deteriorated by (over the period of time) ([1]; Example 11, text, room temperature storage Dec. 28, 1999 to Apr. 4, 2000): 92.9% | Analysis: Dec. 28, 1999 Concentration 0.5 mg/ml 1:125 ([1]; Example 11, first analysis Dec. 28, 1999, 0.5 mg/ml, dilution 1:125, HPLC): 3492 nmol/L | Analysis: Apr. 4, 2000 Concentration 0.5 mg/ml 1:125 ([1]; Example 11, second analysis Apr. 4, 2000, stored at room temperature, closed clear glass vial, constant humidity, 0.5 mg/ml, 1:125): 247.9 nmol/L
SMILES: C[S+](CC[C@H](N)C(=O)O)C[C@H]1O[C@@H](n2cnc3c(N)ncnc32)[C@H](O)[C@@H]1O.Cc1ccc(S(=O)(=O)[O-])cc1 (stereo partly drawn) [SAM-e tosylate]

SMILES: C[S+](CC[C@H](N)C(=O)[O-])C[C@H]1O[C@@H](n2cnc3c(N)ncnc32)[C@H](O)[C@@H]1O (stereo partly drawn) [SAM-e, S-adenosyl-1-methionine]
overall mortality and/or progression to liver transplant [2]: 29% vs 12% | cognitive effect in patients with Alzheimer's disease [3]: cognitive improvement | liver glutathione levels [4]: increases in liver glutathione levels | pruritus and biochemical markers of cholestasis [5]: improvements in both the pruritus as well as the biochemical markers of cholestasis | clinical effect in primary fibromyalgia [6]: significant improvement

SMILES: C[S+](CC[C@H](N)C(=O)[O-])C[C@H]1O[C@@H](n2cnc3c(N)ncnc32)[C@H](O)[C@@H]1O.O=S(=O)(O)CCCCS(=O)(=O)O (stereo partly drawn) [SAM-e-1,4-butane-disulphonate]
deteriorated by (over the period of time) ([1]; Example 10, text, room temperature storage May 11, 2000 to Aug. 22, 2000): 43% | % Change ([1]; Example 10, May 11, 2000 to Aug. 22, 2000, room temperature, closed clear glass vial, constant humidity): −43.9% | Analysis: May 11, 2000 Concentration 1:500 ([1]; Example 10, first analysis May 11, 2000, dilution 1:500, HPLC): 1417.96 nmol/L | Analysis: Aug. 22, 2000 Concentration 1:500 ([1]; Example 10, second analysis Aug. 22, 2000, stored at room temperature, closed clear glass vial, constant humidity, dilution 1:500): 794.41 nmol/L
